{"source": "patent US20200024278A1", "about": "“COMPOSITION COMPRISING ANTIBIOTIC COMPOUND AND AN HETEROCYCLIC COMPOUND AND THEIR USE IN PREVENTING OR TREATING BACTERIAL INFECTIONS” (MUTABILIS, priority 2016, published 2020)", "assay_in_all_cases": "MIC, broth microdilution (CLSI), substance alone or ATB combined with compound at 4 or 8 μg/mL", "format_in_all_cases": "cell-based, A. baumannii", "key": {"ABA UFR155": {"system": "ABA UFR155", "experimental": "(§1) Compounds of the present invention were assessed against genotyped bacterial strains alone or in combination with an antibacterial. In the assays, MICs of said compounds or combination of antibiotics with fixed concentrations of said compounds (4 or 8 μg/mL) were determined by the broth microdilution method according to the Clinical Laboratory Standards Institute (CLSI-M7-A7). Briefly, compounds alone according to the invention were prepared in DMSO and spotted (2 μL each) on sterile polystyrene plates (Corning, 3788). Combinations of compounds and antibiotics dilutions were prepared in DMSO and spotted (1 μL each) on sterile polystyrene plates (Corning, 3788). Log phase bacterial suspensions were adjusted to a final density of 5·10^5 CFU/mL in cation-adjusted Mueller-Hinton broth (ca-MHB; Becton-Dickinson and Company) and added to each well (98 μL). Assays including Fosfomycin were supplemented with 25 μg/ml of Glucose-6-phosphate. Microplates were incubated for 16-20 h at 35° C. in ambient air. The MIC of the compounds was defined as the lowest concentration of said compounds that prevented bacterial growth as read by visual inspection. The MIC of ATB at each compound concentration was defined as the lowest concentration of ATB that prevented bacterial growth as read by visual inspection."}, "ABA UFR156": {"system": "ABA UFR156", "experimental": "as §1"}, "ABA UFR157": {"system": "ABA UFR157", "experimental": "as §1"}, "ABA UFR158": {"system": "ABA UFR158", "experimental": "as §1"}, "ABA UFR159": {"system": "ABA UFR159", "experimental": "as §1"}, "ABA UFR160": {"system": "ABA UFR160", "experimental": "as §1"}, "ABA UFR161": {"system": "ABA UFR161", "experimental": "as §1"}}, "data": [{"smiles": "CC1(C)[C@H](C(=O)O)N2C(=O)C[C@H]2S1(=O)=O", "note": "[SUL]", "values": [{"measurement": "MIC ATB combined with Example 9 @4 μg/ml", "setting": "ABA UFR155; with Example 9 @4 μg/ml", "value": 8, "unit": "µg/mL"}, {"measurement": "MIC ATB combined with Example 10 @8 μg/ml", "setting": "ABA UFR155; with Example 10 @8 μg/ml", "value": 2, "unit": "µg/mL"}, {"measurement": "MIC ATB combined with Example 11 @8 μg/ml", "setting": "ABA UFR155; with Example 11 @8 μg/ml", "value": 4, "unit": "µg/mL"}, {"measurement": "MIC ATB combined with Example 12 @8 μg/ml", "setting": "ABA UFR155; with Example 12 @8 μg/ml", "value": 2, "unit": "µg/mL"}, {"measurement": "MIC ATB combined with Example 15 @4 μg/ml", "setting": "ABA UFR155; with Example 15 @4 μg/ml", "value": 8, "unit": "µg/mL"}, {"measurement": "MIC ATB alone", "setting": "ABA UFR156; antibiotic alone", "value": 64, "unit": "µg/mL"}, {"measurement": "MIC ATB combined with Example 1 @8 μg/ml", "setting": "ABA UFR156; with Example 1 @8 μg/ml", "value": 16, "unit": "µg/mL"}, {"measurement": "MIC ATB combined with Example 3 @8 μg/ml", "setting": "ABA UFR156; with Example 3 @8 μg/ml", "value": 2, "unit": "µg/mL"}, {"measurement": "MIC ATB combined with Example 6 @8 μg/ml", "setting": "ABA UFR156; with Example 6 @8 μg/ml", "value": 4, "unit": "µg/mL"}, {"measurement": "MIC ATB combined with Example 9 @4 μg/ml", "setting": "ABA UFR156; with Example 9 @4 μg/ml", "value": 16, "unit": "µg/mL"}, {"measurement": "MIC ATB combined with Example 10 @8 μg/ml", "setting": "ABA UFR156; with Example 10 @8 μg/ml", "value": 1, "unit": "µg/mL"}, {"measurement": "MIC ATB combined with Example 11 @8 μg/ml", "setting": "ABA UFR156; with Example 11 @8 μg/ml", "value": 8, "unit": "µg/mL"}, {"measurement": "MIC ATB combined with Example 12 @8 μg/ml", "setting": "ABA UFR156; with Example 12 @8 μg/ml", "value": 4, "unit": "µg/mL"}, {"measurement": "MIC ATB combined with Example 15 @4 μg/ml", "setting": "ABA UFR156; with Example 15 @4 μg/ml", "value": 8, "unit": "µg/mL"}, {"measurement": "MIC ATB alone", "setting": "ABA UFR157; antibiotic alone", "value": 64, "unit": "µg/mL"}, {"measurement": "MIC ATB combined with Example 1 @8 μg/ml", "setting": "ABA UFR157; with Example 1 @8 μg/ml", "value": 2, "unit": "µg/mL"}, {"measurement": "MIC ATB combined with Example 3 @8 μg/ml", "setting": "ABA UFR157; with Example 3 @8 μg/ml", "value": 0.5, "unit": "µg/mL"}, {"measurement": "MIC ATB combined with Example 6 @8 μg/ml", "setting": "ABA UFR157; with Example 6 @8 μg/ml", "value": "<0.25", "unit": "µg/mL"}, {"measurement": "MIC ATB combined with Example 9 @4 μg/ml", "setting": "ABA UFR157; with Example 9 @4 μg/ml", "value": 1, "unit": "µg/mL"}, {"measurement": "MIC ATB combined with Example 10 @8 μg/ml", "setting": "ABA UFR157; with Example 10 @8 μg/ml", "value": 1, "unit": "µg/mL"}, {"measurement": "MIC ATB combined with Example 11 @8 μg/ml", "setting": "ABA UFR157; with Example 11 @8 μg/ml", "value": 0.5, "unit": "µg/mL"}, {"measurement": "MIC ATB combined with Example 12 @8 μg/ml", "setting": "ABA UFR157; with Example 12 @8 μg/ml", "value": 0.5, "unit": "µg/mL"}, {"measurement": "MIC ATB combined with Example 15 @4 μg/ml", "setting": "ABA UFR157; with Example 15 @4 μg/ml", "value": 1, "unit": "µg/mL"}, {"measurement": "MIC ATB alone", "setting": "ABA UFR158; antibiotic alone", "value": 64, "unit": "µg/mL"}, {"measurement": "MIC ATB combined with Example 1 @8 μg/ml", "setting": "ABA UFR158; with Example 1 @8 μg/ml", "value": 16, "unit": "µg/mL"}, {"measurement": "MIC ATB combined with Example 3 @8 μg/ml", "setting": "ABA UFR158; with Example 3 @8 μg/ml", "value": 16, "unit": "µg/mL"}, {"measurement": "MIC ATB combined with Example 6 @8 μg/ml", "setting": "ABA UFR158; with Example 6 @8 μg/ml", "value": "<0.25", "unit": "µg/mL"}, {"measurement": "MIC ATB combined with Example 9 @4 μg/ml", "setting": "ABA UFR158; with Example 9 @4 μg/ml", "value": 16, "unit": "µg/mL"}, {"measurement": "MIC ATB combined with Example 10 @8 μg/ml", "setting": "ABA UFR158; with Example 10 @8 μg/ml", "value": 16, "unit": "µg/mL"}, {"measurement": "MIC ATB combined with Example 11 @8 μg/ml", "setting": "ABA UFR158; with Example 11 @8 μg/ml", "value": 16, "unit": "µg/mL"}, {"measurement": "MIC ATB combined with Example 12 @8 μg/ml", "setting": "ABA UFR158; with Example 12 @8 μg/ml", "value": 16, "unit": "µg/mL"}, {"measurement": "MIC ATB combined with Example 15 @4 μg/ml", "setting": "ABA UFR158; with Example 15 @4 μg/ml", "value": 32, "unit": "µg/mL"}, {"measurement": "MIC ATB alone", "setting": "ABA UFR159; antibiotic alone", "value": 256, "unit": "µg/mL"}, {"measurement": "MIC ATB combined with Example 1 @8 μg/ml", "setting": "ABA UFR159; with Example 1 @8 μg/ml", "value": 128, "unit": "µg/mL"}, {"measurement": "MIC ATB combined with Example 3 @8 μg/ml", "setting": "ABA UFR159; with Example 3 @8 μg/ml", "value": 128, "unit": "µg/mL"}, {"measurement": "MIC ATB combined with Example 6 @8 μg/ml", "setting": "ABA UFR159; with Example 6 @8 μg/ml", "value": 128, "unit": "µg/mL"}, {"measurement": "MIC ATB combined with Example 9 @4 μg/ml", "setting": "ABA UFR159; with Example 9 @4 μg/ml", "value": 128, "unit": "µg/mL"}, {"measurement": "MIC ATB combined with Example 10 @8 μg/ml", "setting": "ABA UFR159; with Example 10 @8 μg/ml", "value": 128, "unit": "µg/mL"}, {"measurement": "MIC ATB combined with Example 11 @8 μg/ml", "setting": "ABA UFR159; with Example 11 @8 μg/ml", "value": 128, "unit": "µg/mL"}, {"measurement": "MIC ATB combined with Example 12 @8 μg/ml", "setting": "ABA UFR159; with Example 12 @8 μg/ml", "value": 128, "unit": "µg/mL"}, {"measurement": "MIC ATB combined with Example 15 @4 μg/ml", "setting": "ABA UFR159; with Example 15 @4 μg/ml", "value": 128, "unit": "µg/mL"}, {"measurement": "MIC ATB alone", "setting": "ABA UFR160; antibiotic alone", "value": ">128", "unit": "µg/mL"}, {"measurement": "MIC ATB combined with Example 1 @8 μg/ml", "setting": "ABA UFR160; with Example 1 @8 μg/ml", "value": 64, "unit": "µg/mL"}, {"measurement": "MIC ATB combined with Example 3 @8 μg/ml", "setting": "ABA UFR160; with Example 3 @8 μg/ml", "value": 64, "unit": "µg/mL"}, {"measurement": "MIC ATB combined with Example 6 @8 μg/ml", "setting": "ABA UFR160; with Example 6 @8 μg/ml", "value": "<0.25", "unit": "µg/mL"}, {"measurement": "MIC ATB combined with Example 9 @4 μg/ml", "setting": "ABA UFR160; with Example 9 @4 μg/ml", "value": 64, "unit": "µg/mL"}, {"measurement": "MIC ATB combined with Example 10 @8 μg/ml", "setting": "ABA UFR160; with Example 10 @8 μg/ml", "value": 64, "unit": "µg/mL"}, {"measurement": "MIC ATB combined with Example 11 @8 μg/ml", "setting": "ABA UFR160; with Example 11 @8 μg/ml", "value": 64, "unit": "µg/mL"}, {"measurement": "MIC ATB combined with Example 12 @8 μg/ml", "setting": "ABA UFR160; with Example 12 @8 μg/ml", "value": 64, "unit": "µg/mL"}, {"measurement": "MIC ATB combined with Example 15 @4 μg/ml", "setting": "ABA UFR160; with Example 15 @4 μg/ml", "value": 64, "unit": "µg/mL"}, {"measurement": "MIC ATB alone", "setting": "ABA UFR161; antibiotic alone", "value": 128, "unit": "µg/mL"}, {"measurement": "MIC ATB combined with Example 1 @8 μg/ml", "setting": "ABA UFR161; with Example 1 @8 μg/ml", "value": 32, "unit": "µg/mL"}, {"measurement": "MIC ATB combined with Example 3 @8 μg/ml", "setting": "ABA UFR161; with Example 3 @8 μg/ml", "value": 16, "unit": "µg/mL"}, {"measurement": "MIC ATB combined with Example 6 @8 μg/ml", "setting": "ABA UFR161; with Example 6 @8 μg/ml", "value": 16, "unit": "µg/mL"}, {"measurement": "MIC ATB combined with Example 9 @4 μg/ml", "setting": "ABA UFR161; with Example 9 @4 μg/ml", "value": 8, "unit": "µg/mL"}, {"measurement": "MIC ATB combined with Example 10 @8 μg/ml", "setting": "ABA UFR161; with Example 10 @8 μg/ml", "value": 16, "unit": "µg/mL"}, {"measurement": "MIC ATB combined with Example 11 @8 μg/ml", "setting": "ABA UFR161; with Example 11 @8 μg/ml", "value": 8, "unit": "µg/mL"}, {"measurement": "MIC ATB combined with Example 12 @8 μg/ml", "setting": "ABA UFR161; with Example 12 @8 μg/ml", "value": 8, "unit": "µg/mL"}, {"measurement": "MIC ATB combined with Example 15 @4 μg/ml", "setting": "ABA UFR161; with Example 15 @4 μg/ml", "value": 16, "unit": "µg/mL"}]}]}
